Assay results as given in US10159265B2, “Feed composition for reducing ruminant methanogenesis” (priority 2012, dated 2018).
Marks after values point to notes of the source that are not given here.

How the values were obtained:
[1] = tested on: "in vitro" ruminal fluid cultures; assay: Ammonia (N-NH3) concentration in "in vitro" ruminal fluid cultures; type: cell-based, calves; details: 72 h
[2] = tested on: "in vitro" rumen fluid culture; assay: Biogas production in "in vitro" rumen fluid culture (pressure meter); type: cell-based, calves; design: Average biogas production / Cumulative biogas production / Biogas production: unit not given here; details: Exp 1; for Average biogas production: average over doses and incubation times
Description: (§1) Two trials following an identical experimental protocol were designed to study the effect of different pure flavonoids on rumen fermentation using a simulatory “in vitro” system based on the experimental protocol described by Theodorou M K et al. (1994) Animal Feed Science and Technology, 48 (3), p. 185-197; Mauricio, R. M., et al. (1999) Animal Feed Science and Technology 79, 321-330.
Gas production was determined from a semi-automatic pressure meter, the relationship between pressure levels and the produced gas volume was previously calculated.
(§2) Rumen cannulated calves which received a mixed ration mainly composed of concentrate (90:10) were used as rumen fluid donor; feed composition is presented in Table 1. The inoculum was collected and filtered through two-layer surgical gauze and kept in thermo pots. Flavonoids (Table 2) plus 600 mg of concentrate (Table 1) and 60 mg of barley straw as the substrate were dosed by triplicate in preheated bottles (39° C.) and maintained under anaerobic conditions. Flavonoids isonaringin, neoeritrocin, poncirin were purchased from INDOFINE Chemical Company, Inc (USA). 10 ml of rumen fluid and 40 ml of incubation medium were added to the bottles (McDougall, El (1948) Studies on ruminant saliva. 1. The composition and output of sheep's saliva. Biochem J. 43(1) 99-109). Once the bottles were filled and the anaerobic condition was applied, the bottles were sealed and the incubation process was started in a hot water bath. […] Each sample was incubated in triplicate in two sets or batches.

Streptococcus bovis = assay: qPCR relative quantification of Streptococcus bovis; type: cell-based; details: 12 hours of incubation
Description: (§3) Rumen cannulated calves which received a mixed ration mainly composed of concentrate (90:10) were used as rumen fluid donor; feed composition is presented in Table 1. The inoculum was collected and filtered through two-layer surgical gauze and kept in thermo pots. Flavonoids (Table 2) plus 600 mg of concentrate (Table 1) and 60 mg of barley straw as the substrate were dosed by triplicate in preheated bottles (39° C.) and maintained under anaerobic conditions. Flavonoids isonaringin, neoeritrocin, poncirin were purchased from INDOFINE Chemical Company, Inc (USA). 10 ml of rumen fluid and 40 ml of incubation medium were added to the bottles (McDougall, El (1948) Studies on ruminant saliva. 1. The composition and output of sheep's saliva. Biochem J. 43(1) 99-109). Once the bottles were filled and the anaerobic condition was applied, the bottles were sealed and the incubation process was started in a hot water bath. Pressure readings were made at 2, 4, 6, 8, 12, 24, 36 and 48 hours. Each sample was incubated in triplicate in two sets or batches.
(§4) After 12 hours of incubation, one bottle (replicate) from each treatment was opened, pH was recorded and the bottle was sampled for volatile fatty acids (Jouany, J. P., 1982 Science des Aliments 2, 131-144), lactate (Taylor, K. A. C. C., 1996. Appl. Biochem. Biotechnol. Enzym. Eng. Biotechnol. 56, 49-58) and ammonia (Chaney, A. L., Marbach, E. P., 1962. Clin. Chem. 8, 130-132) analyses.
(§5) The environmental DNA was extracted using the technique proposed by Yu and Morrison (2004). Quantification of Streptococcus bovis, Megasphaera elsdenii and Selenomonas ruminantium DNA was done by qPCR using specific primers (Tajima, K. et al. 2001. Appl. Environ. Microb. 67, 2766-2774; Ouwerkerk, D., et al. 2002. J. Appl. Microbiol. 92, 753-758). Results were statistically analyzed using the PROC MIXED procedure of SAS statistical package (SAS, 2000, User's guide: Statistics, version 8 editions inst., Inc., Cary, N.C.). The least significant difference was used to compare the means. Differences between means in which P<0.05 were accepted as significant.

[3] = tested on: "in vitro" ruminal fluid cultures; assay: Ammonia (N-NH3) concentration in "in vitro" ruminal fluid cultures; type: cell-based, calves; details: for N-NH3 concentration, average (M): average over incubation times
Description: as §1, §3, §4

ruminal bacteria = assay: Bacterial DNA concentration by qPCR; type: cell-based, calves; details: 12 hours of incubation
Description: as §3, §4, §5

[4] = tested on: "in vitro" ruminal fluid cultures; assay: Volatile fatty acid concentration and molar proportions in "in vitro" ruminal fluid cultures; type: cell-based, calves; details: for % Acetate, molar ratio, average (μ) / % Butyrate, molar ratio, average (μ) / % Propionate, molar ratio, average (M) / VFA concentration, average (μ): average over incubation times
Description: as §1, §3
[…] P., 1982 Science des Aliments 2, 131-144), lactate (Taylor, K. A. C. C., 1996. Appl. Biochem. Biotechnol. Enzym. Eng. Biotechnol. 56, 49-58) and ammonia (Chaney, A. L., Marbach, E. P., 1962. Clin. Chem. 8, 130-132) analyses.

Megasphaera elsdenii = assay: qPCR relative quantification of Megasphaera elsdenii; type: cell-based; details: 12 hours of incubation
Description: as §3, §4, §5

[5] = tested on: "in vitro" ruminal fluid culture; assay: Lactate concentration in "in vitro" ruminal fluid culture; type: cell-based, calves; details: 12 hours of incubation
Description: as §1, §3, §4

[6] = tested on: methanogenic (archea) populations; assay: Methane production in "in vitro" rumen fluid culture; type: cell-based, calves; design: Average methane production / Accumulated methane production / Methane production / Cumulative methane production: unit not given here; details: Exp 1
Description: as §1, §2
The effects of flavonoids substances on fermentation activity of certain archea populations which are theoretically responsible for the methane production were analyzed.
The experimental design allows determining whether the effect of flavonoids on methane reduction was derived from a general reduction in microbial activity and biogas production or contrarily flavonoid affects specifically on methanogenic (archea) populations. The presence of flavonoids in the culture medium reduced methane contribution in the total biogas production (P<0.05) although, again, the aforementioned impact was heterogeneous.

Selenomonas ruminantium = assay: qPCR relative quantification of Selenomonas ruminantium; type: cell-based; details: 12 hours of incubation
Description: as §3, §4, §5

[7] = average over doses and incubation times

C[C@@H]1O[C@@H](O[C@H]2[C@H](Oc3cc(O)c4c(c3)O[C@H](c3ccc(O)cc3)CC4=O)O[C@H](CO)[C@@H](O)[C@@H]2O)[C@H](O)[C@H](O)[C@H]1O [Naringin, naringin]
N-NH3 concentration [1]: 336.25 mg/L | Cumulative biogas production ([2]; 12 h incubation): 193.90 | Cumulative biogas production ([2]; 24 h incubation): 236.91 | Cumulative biogas production ([2]; 48 h incubation): 270.98 | Cumulative biogas production ([2]; 72 h incubation): 290.91 | Average biogas production [2]: 248.17^bc | Average biogas production ([2]; listed as naringin): did not change | Biogas production ([2]; dose 1, 0.2 g/kg DM): 251.15 | Biogas production ([2]; dose 2, 0.5 g/kg DM): 245.19 | Relative Quantification 2^(ΔΔCt) S. bovis (Streptococcus bovis): 0.48 | N-NH3 concentration ([3]; 0 h (initial constant value)): 149.99 mg/L | N-NH3 concentration ([3]; 12 h): 172.47 mg/L | N-NH3 concentration, average (M) [3]: 219.57 mg/L | Bacteria DNA (ruminal bacteria): 22.15 ^ab μg/ml | % Acetate, molar ratio ([4]; 0 h): 62.51 mol/100 mol | % Butyrate, molar ratio ([4]; 0 h): 9.07 mol/100 mol | % Propionate, molar ratio ([4]; 0 h): 20.03 mol/100 mol | A/P rate (acetate/propionate) ([4]; 0 h): 3.12 | VFA concentration ([4]; 0 h (initial constant value)): 13.78 mmol/L | % Acetate, molar ratio ([4]; 12 h): 53.70 mol/100 mol | % Butyrate, molar ratio ([4]; 12 h): 10.47 mol/100 mol | % Propionate, molar ratio ([4]; 12 h): 30.00 mol/100 mol | A/P rate (acetate/propionate) ([4]; 12 h): 1.79 | VFA concentration ([4]; 12 h): 35.23 mmol/L | % Acetate, molar ratio ([4]; 72 h): 55.34 mol/100 mol | % Butyrate, molar ratio ([4]; 72 h): 10.33 mol/100 mol | % Propionate, molar ratio ([4]; 72 h): 26.75 mol/100 mol | A/P rate (acetate/propionate) ([4]; 72 h): 2.07 | VFA concentration ([4]; 72 h): 51.03 mmol/L | % Acetate, molar ratio, average (μ) [4]: 57.18 mol/100 mol | % Butyrate, molar ratio, average (μ) [4]: 9.96 ^ab mol/100 mol | % Propionate, molar ratio, average (M) [4]: 25.59 ^b mol/100 mol | VFA concentration, average (μ) [4]: 33.35 mmol/L | % Propionate, molar ratio, average (M) ([4]; listed as naringin): improved | Relative Quantification 2^(ΔΔCt) M. elsdenii (Megasphaera elsdenii): 1.26 ^c | Lactate [5]: 77.8 mg/L | Accumulated methane production ([6]; 12 h): 23.38 | Proportion of methane in the produced biogas ([6]; 12 h): 12.04 | Accumulated methane production ([6]; 24 h): 29.46 | Proportion of methane in the produced biogas ([6]; 24 h): 14.28 | Accumulated methane production ([6]; 48 h): 34.93 | Proportion of methane in the produced biogas ([6]; 48 h): 16.14 | Accumulated methane production ([6]; 72 h): 38.24 | Proportion of methane in the produced biogas ([6]; 72 h): 16.97 | Proportion of methane in the produced biogas [6, 7]: 14.86^b | Average methane production ([6]; average over doses and incubation times, listed as Naringina): 31.50^b | Average methane production ([6]; average over doses and incubation times, listed as naringin): not modified | Methane production ([6]; dose 1, 0.2 g/kg DM): 32.28 | Proportion of methane in the produced biogas ([6]; dose 1, 0.2 g/kg DM): 14.87 | Methane production ([6]; dose 2, 0.5 g/kg DM): 30.73 | Proportion of methane in the produced biogas ([6]; dose 2, 0.5 g/kg DM): 14.85 | Relative Quantification 2^(ΔΔCt) S. ruminantium (Selenomonas ruminantium): 0.74

COc1ccc([C@@H]2CC(=O)c3c(O)cc(O[C@@H]4O[C@H](CO)[C@@H](O)[C@H](O)[C@H]4O[C@@H]4O[C@@H](C)[C@H](O)[C@@H](O)[C@H]4O)cc3O2)cc1 [Poncirin, poncirin]
N-NH3 concentration [1]: 318.15 mg/L | Cumulative biogas production ([2]; 12 h incubation): 180.63 | Cumulative biogas production ([2]; 24 h incubation): 224.90 | Cumulative biogas production ([2]; 48 h incubation): 262.00 | Cumulative biogas production ([2]; 72 h incubation): 284.28 | Average biogas production [2]: 237.95^cde | Average biogas production ([2]; listed as poncirin): 238 | Biogas production ([2]; dose 1, 0.2 g/kg DM): 234.43 | Biogas production ([2]; dose 2, 0.5 g/kg DM): 241.48 | Relative Quantification 2^(ΔΔCt) S. bovis (Streptococcus bovis): 0.44 | N-NH3 concentration ([3]; 0 h (initial constant value)): 149.99 mg/L | N-NH3 concentration ([3]; 12 h): 159.33 mg/L | N-NH3 concentration, average (M) [3]: 209.16 mg/L | Bacteria DNA (ruminal bacteria): 10.12 ^a μg/ml | % Acetate, molar ratio ([4]; 0 h): 62.51 mol/100 mol | % Butyrate, molar ratio ([4]; 0 h): 9.07 mol/100 mol | % Propionate, molar ratio ([4]; 0 h): 20.03 mol/100 mol | A/P rate (acetate/propionate) ([4]; 0 h): 3.12 | VFA concentration ([4]; 0 h (initial constant value)): 13.78 mmol/L | % Acetate, molar ratio ([4]; 12 h): 55.44 mol/100 mol | % Butyrate, molar ratio ([4]; 12 h): 9.61 mol/100 mol | % Propionate, molar ratio ([4]; 12 h): 29.52 mol/100 mol | A/P rate (acetate/propionate) ([4]; 12 h): 1.88 | VFA concentration ([4]; 12 h): 36.98 mmol/L | % Acetate, molar ratio ([4]; 72 h): 55.36 mol/100 mol | % Butyrate, molar ratio ([4]; 72 h): 10.20 mol/100 mol | % Propionate, molar ratio ([4]; 72 h): 26.96 mol/100 mol | A/P rate (acetate/propionate) ([4]; 72 h): 2.05 | VFA concentration ([4]; 72 h): 51.87 mmol/L | % Acetate, molar ratio, average (μ) [4]: 57.77 mol/100 mol | % Butyrate, molar ratio, average (μ) [4]: 9.63 ^a mol/100 mol | % Propionate, molar ratio, average (M) [4]: 25.51 ^b mol/100 mol | VFA concentration, average (μ) [4]: 34.21 mmol/L | % Propionate, molar ratio, average (M) ([4]; listed as poncirin): improved | Relative Quantification 2^(ΔΔCt) M. elsdenii (Megasphaera elsdenii): 0.98 ^ab | Lactate [5]: 87.5 mg/L | Accumulated methane production ([6]; 12 h): 19.19 | Proportion of methane in the produced biogas ([6]; 12 h): 10.62 | Accumulated methane production ([6]; 24 h): 24.43 | Proportion of methane in the produced biogas ([6]; 24 h): 11.94 | Accumulated methane production ([6]; 48 h): 30.50 | Proportion of methane in the produced biogas ([6]; 48 h): 16.54 | Accumulated methane production ([6]; 72 h): 34.07 | Proportion of methane in the produced biogas ([6]; 72 h): 16.34 | Average methane production [6, 7]: 27.04^de | Proportion of methane in the produced biogas [6, 7]: 13.86^cd | Average methane production ([6]; average over doses and incubation times, listed as poncirin): decreased | Methane production ([6]; dose 1, 0.2 g/kg DM): 26.61 | Proportion of methane in the produced biogas ([6]; dose 1, 0.2 g/kg DM): 13.92 | Methane production ([6]; dose 2, 0.5 g/kg DM): 27.47 | Proportion of methane in the produced biogas ([6]; dose 2, 0.5 g/kg DM): 13.80 | Relative Quantification 2^(ΔΔCt) S. ruminantium (Selenomonas ruminantium): 0.68
